Data from patent publication US20230203081A1, “LINCOSAMIDE ANTIBIOTICS AND USES THEREOF” (President and Fellows of Harvard College, priority 2020, published 2023).
≈ marks a conversion by molar mass, not a printed value. Read-outs that look alike come from different tables or passages of the source.

Columns and labels:
Type in all cases: cell-based
[1] = tested on: E. faecium Line R & VRE; assay: MIC (broth microdilution or agar dilution, CLSI)
In short: (§1)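 MICs follow CLSI broth microdilution or agar dilution, testing typically 128-0.06 μg/mL compound at 2.5% final DMSO, in triplicate with clindamycin comparator. Non-anaerobic strains use CaMHB at a final inoculum of 5×10^5 CFU/mL; anaerobes like C. difficile and C. scindens use specialized procedures.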

[2] = tested on: S. aureus MMX 3035 cErmA; assay: MIC (broth microdilution or agar dilution, CLSI)
In short: (§2)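 Inoculum for broth microdilution was 5×10^5 CFU/mL final, prepared from overnight 35° C blood-agar subcultures (separate handling for streptococcal and anaerobic strains); MICs read by CLSI broth microdilution or agar dilution.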

[3] = tested on: E. coli ATCC 25922; assay: MIC (broth microdilution or agar dilution, CLSI)
In short: as §2

[4] = tested on: A. baumannii ATCC 19606; assay: MIC (broth microdilution or agar dilution, CLSI)
In short: as §2

[5] = tested on: E. faecalis MMX 847; cErmB; assay: MIC (broth microdilution or agar dilution, CLSI)
In short: as §2

[6] = tested on: P. aeruginosa ΔAmex OprM; assay: MIC (broth microdilution or agar dilution, CLSI)
In short: as §1

[7] = tested on: P. aeruginosa ATCC 27853; assay: MIC (broth microdilution or agar dilution, CLSI)
In short: as §1

[8] = tested on: E. coli MP-74 LptD mutant; assay: MIC (broth microdilution or agar dilution, CLSI); settings: Escherichia coli
In short: as §1

[9] = tested on: B. fragilis ATCC 25285; assay: MIC (broth microdilution or agar dilution, CLSI); settings: Bacteroides fragilis, read-out: MIC
In short: as §1

[10] = tested on: C. difficile ATCC 700057; assay: MIC (broth microdilution or agar dilution, CLSI)
In short: as §1

[11] = tested on: S. aureus cErmA; assay: MIC (broth microdilution or agar dilution, CLSI); settings: Staphylococcus aureus
In short: as §1

[12] = tested on: C. scindens ATCC 35704; assay: MIC (broth microdilution or agar dilution, CLSI)
In short: as §1

[13] = tested on: E. faecium Clinical VRE; assay: MIC (broth microdilution or agar dilution, CLSI); settings: Enterococcus faecium, VRE
In short: as §1

[14] = tested on: E. faecium VRE; assay: MIC (broth microdilution or agar dilution, CLSI); settings: Enterococcus faecium, VRE
In short: as §1

[15] = tested on: S. aureus MRSA; assay: MIC (broth microdilution or agar dilution, CLSI); settings: Staphylococcus aureus
In short: as §1

[16] = tested on: Escherichia coli c-ermB; assay: MIC, clinically derived E. coli with acquired resistance; settings: Escherichia coli
Experimental: (§3) Minimum inhibitory concentrations (MICs) were determined by broth microdilution method or agar dilution method following the Clinical and Laboratory Standards Institute guidelines. Standard bacterial strains were obtained from American Type Culture Collection (ATCC). Other bacterial strains were obtained from hospitals and commercial sources, so noted in Table 11. Before the start of the MIC experiment, standard and test compound stock solutions were prepared in dimethyl sulfoxide (DMSO, Aldrich D2650) at a stock concentration of 5,120 μg/mL. The compound concentration range typically employed for each experiment was 128-0.06 μg/mL (2.5% final DMSO concentration). Clindamycin was used as a comparator in all experiments and each experiment was performed in triplicate. Specialized procedures were employed for streptococcal and anaerobic strains. All other bacterial strains were sub-cultured on blood agar plates (tryptic soy agar with 5% sheep blood, Hardy Diagnostics) and incubated overnight at 35° C. Organisms were suspended in cation-adjusted Mueller-Hinton broth (CaMHB, BD 212322) and optical density was adjusted to 0.5 McFarland standard. Suspensions were further diluted to obtain a final inoculum of 5×10^5 CFU/mL for broth microdilution experiments.

[17] = tested on: E. faecalis VRE; assay: MIC (CLSI), second E. faecalis VRE line of Table 4; settings: Enterococcus faecalis, VRE
Experimental: as §3

[18] = tested on: E. faecalis VRE; assay: MIC (CLSI), third E. faecalis VRE line of Table 4; settings: Enterococcus faecalis, VRE
Experimental: as §3

[19] = tested on: E. coli strain SQ110DTC; assay: MIC in LB medium against E. coli SQ110DTC and its FSA-513018b-resistant mutants (Table 14); settings: Escherichia coli
[20] = tested on: H. influenzae ATCC 49247; assay: MIC (broth microdilution or agar dilution, CLSI); settings: Haemophilus influenzae, ATCC49247
In short: as §2

[21] = Enterococcus faecium, E. faecium HAV#319, Line R & Vanco R, read-out: MIC
[22] = Staphylococcus aureus, MMX3035CERMA, S. aureus HAV#031, MMX 3035, cErmA, read-out: MIC
[23] = Escherichia coli, ATCC25922, E. coli HAV#006, ATCC 25922, read-out: MIC
[24] = Acinetobacter baumannii, ATCC19606, A. baumanii HAV#010, ATCC 19606, read-out: MIC
[25] = Enterococcus faecalis, E. faecalis HAV#036, MMX 847, mac-resistant, cErmB, read-out: MIC
[26] = Pseudomonas aeruginosa, ATCC27853, P. aeruginosa HAV#009, ATCC 27853, read-out: MIC
[27] = E. faecium HAV#319, Line R & Vanco R
[28] = P. aeruginosa HAV#039, ΔAmex OprM
[29] = P. aeruginosa HAV#009, ATCC 27853
[30] = Escherichia coli, ATCC25922, E. coli HAV#006, ATCC 25922
[31] = A. baumanii HAV#010, ATCC 19606

CC[C@H]1OC(=O)[C@H](C)[C@@H](O[C@H]2C[C@@](C)(OC)[C@@H](O)[C@H](C)O2)[C@H](C)[C@@H](O[C@@H]2O[C@H](C)C[C@H](N(C)C)[C@H]2O)[C@](C)(O)C[C@@H](C)CN(C)[C@H](C)[C@@H](O)[C@]1(C)O [Azithromycin]
MIC [1, 21]: 8 µg/mL (≈ 10.7 µM)
MIC [2, 22]: > 64 µg/mL
MIC [3, 23]: 4 µg/mL (≈ 5.34 µM)
MIC [4, 24]: 64 µg/mL (≈ 85.4 µM)
MIC [5, 25]: > 64 µg/mL

CO/N=C(\C(=O)N[C@@H]1C(=O)N2C(C(=O)O)=C(CSc3nc(=O)c(=O)[nH]n3C)CS[C@H]12)c1csc(N)n1 [Ceftriaxone]
MIC [1, 21]: > 256 µg/mL
MIC ([6]; Pseudomonas aeruginosa): 16 µg/mL (≈ 28.9 µM)
MIC [7, 26]: > 64 µg/mL
MIC [3, 23]: 0.125 µg/mL (≈ 0.225 µM)

CCC[C@@H]1C[C@@H](C(=O)N[C@@H]([C@H]2O[C@H](SC)[C@H](O)[C@@H](O)[C@H]2O)[C@H](C)Cl)N(C)C1 [Clindamycin, clindamycin, reference compound]
MIC [1, 27]: >128 µg/mL
MIC ([1]; Enterococcus faecium): > 128 µg/mL
MIC [8]: 4 µg/mL (≈ 9.41 µM)
MIC [6, 28]: 32 µg/mL (≈ 75.3 µM)
MIC ([6]; Pseudomonas aeruginosa): 32 µg/mL (≈ 75.3 µM)
MIC ([9]; ATCC25285, B. fragilis ATCC 25285): 1 µg/mL (≈ 2.35 µM)
MIC ([9]; ATCC25285, B. fragilis HAV#013, ATCC 25285): 0.5 µg/mL (≈ 1.18 µM)
MIC ([10]; C. difficile HAV#011, ATCC 700057): 8 µg/mL (≈ 18.8 µM)
MIC ([10]; Clostridioides difficile, ATCC700057, C. difficile ATCC 700057, read-out: MIC): 8 µg/mL (≈ 18.8 µM)
MIC [7, 29]: >128 µg/mL
MIC ([7]; Pseudomonas aeruginosa, ATCC27853): > 128 µg/mL
MIC [11]: > 128 µg/mL
MIC ([12]; C. scindens HAV#012, ATCC 35704): 2 µg/mL (≈ 4.71 µM)
MIC ([12]; [Clostridium] scindens, ATCC35704, C. scindens ATCC 35704, read-out: MIC): 2 µg/mL (≈ 4.71 µM)
MIC [13]: > 128 µg/mL
MIC [14]: > 128 µg/mL
MIC [15]: 0.25 µg/mL (≈ 0.588 µM)
MIC ([2]; Staphylococcus aureus, MMX3035CERMA, S. aureus MMX 3035 cErmA, read-out: MIC): > 64 µg/mL
MIC ([3]; Escherichia coli, ATCC25922, E. coli ATCC 25922): > 128 µg/mL
MIC ([3]; Escherichia coli, ATCC25922, E. coli ATCC 25922, read-out: MIC): > 64 µg/mL
MIC [3, 30]: > 128 µg/mL
MIC [4, 31]: >128 µg/mL
MIC ([4]; Acinetobacter baumannii, ATCC19606): > 128 µg/mL
MIC ([5]; Enterococcus faecalis, E. faecalis MMX 847, cErmB): > 128 µg/mL
MIC ([5]; Enterococcus faecalis, E. faecalis MMX 847, cErmB, read-out: MIC): > 64 µg/mL
MIC [16]: > 128 µg/mL
MIC [17]: > 128 µg/mL
MIC [18]: > 128 µg/mL
MIC ([19]; E. coli SQ110DTC, WT): 16 µg/mL (≈ 37.6 µM)
MIC ([19]; clone SA-3R1, mutation 2058G, selection plate 1 μg/mL FSA-513018b): > 128 µg/mL
MIC ([19]; clone SA-3R2, mutation 2059G, selection plate […] FSA-513018b): > 128 µg/mL
MIC ([19]; clone SA-3R9, mutation 2058G, selection plate […] FSA-513018b): > 128 µg/mL
MIC ([19]; clone SA-3R13, mutation 2059G, selection plate 1 μg/mL FSA-513018b): > 128 µg/mL

C[C@H]1c2cccc(O)c2C(=O)C2=C(O)[C@]3(O)C(=O)C(C(N)=O)=C(O)[C@@H](N(C)C)[C@@H]3[C@@H](O)[C@@H]21 [Doxycycline]
MIC [2, 22]: 0.25 µg/mL (≈ 0.563 µM)
MIC [5, 25]: 16 µg/mL (≈ 36 µM)

C[C@H]1COc2c(N3CCN(C)CC3)c(F)cc3c(=O)c(C(=O)O)cn1c23 [Levofloxacin]
MIC ([6]; Pseudomonas aeruginosa): 0.125 µg/mL (≈ 0.346 µM)
MIC [7, 26]: 2 µg/mL (≈ 5.53 µM)
MIC [2, 22]: 4 µg/mL (≈ 11.1 µM)
MIC [3, 23]: ≤ 0.06 µg/mL
MIC [4, 24]: 1 µg/mL (≈ 2.77 µM)
MIC [5, 25]: > 64 µg/mL

CC(=O)NC[C@H]1CN(c2ccc(N3CCOCC3)c(F)c2)C(=O)O1 [Linezolid]
MIC [2, 22]: 2 µg/mL (≈ 5.93 µM)
MIC [3, 30]: > 128 µg/mL
MIC [5, 25]: 2 µg/mL (≈ 5.93 µM)

CN[C@H](CC(C)C)C(=O)N[C@H]1C(=O)N[C@@H](CC(N)=O)C(=O)N[C@H]2C(=O)N[C@H]3C(=O)N[C@H](C(=O)N[C@H](C(=O)O)c4cc(O)cc(O)c4-c4cc3ccc4O)[C@H](O)c3ccc(c(Cl)c3)Oc3cc2cc(c3O[C@@H]2O[C@H](CO)[C@@H](O)[C@H](O)[C@H]2O[C@H]2C[C@](C)(N)[C@H](O)[C@H](C)O2)Oc2ccc(cc2Cl)[C@H]1O [Vancomycin]
MIC ([2]; Staphylococcus aureus, MMX3035CERMA): 2 µg/mL (≈ 1.38 µM)
MIC [20]: > 64 µg/mL
MIC ([3]; Escherichia coli, ATCC25922): > 128 µg/mL
MIC ([5]; Enterococcus faecalis): > 64 µg/mL

Gentamicin
MIC [1, 27]: 64 µg/mL
MIC [6, 28]: >64 µg/mL
MIC [7, 29]: >64 µg/mL
MIC ([2]; S. aureus HAV#031, MMX 3035, cErmA): 1 µg/mL
MIC ([3]; E. coli HAV#006, ATCC 25922): 2 µg/mL
MIC [4, 31]: >64 µg/mL
MIC ([5]; E. faecalis HAV#036, MMX 847, mac-resistant, cErmB): >64 µg/mL
